Where two headings read alike, the source gives them in different places.
Legend:
[1] = test system: male SD rats; assay: Single oral dose food intake study, 24-hour observational period (Example 6, first in vivo study); set-up: species or system rat
Procedure: This example compares efficacy of DA versus DB in food inhibition and body weight control. As a background, according to Avau et al., Sci. Rep. […] In our first in vivo study, 45 male SD rats (purchased from Envigo at 8-10 weeks of age) were divided into three groups (15 in each group), which were administered a single oral dose of vehicle (distilled water), 26.8 mg/kg of DB, or 23.1 mg/kg of DA respectively, with a 24-hour observational period, to compare the efficacy of DB versus DA in reducing food intake. Table 4. Mean cumulative food intake during 24-h observational period

[2] = test system: male C57BL/6N DIO mice; assay: 56-day BID treatment, food consumption and body weight in DIO mice (Example 6, second in vivo study); set-up: species or system mouse
Procedure: In a second in vivo study, 45 male C57BL/6N DIO mice (purchased from Envigo at 18 weeks of age, fed with high-fat diet) were divided into three groups (15 in each group), which were orally administered vehicle (distilled water), 26.8 mg/kg of DB, or 23.1 mg/kg of DA respectively, twice daily (BID), with a 56-day treatment period to compare the efficacy of DB versus DA in food intake reduction and body weight control. Briefly, once weekly, the food weight for each cage was recorded at 0 hour and then 24 hours later, permitting calculation of food consumption for that 24-hour interval. In addition, starting from Day 0, the mice were weighed three times weekly (every 2-3 days).

[3] = Maximum tolerated dose / LD50 study, single oral gavage, 14-day observational period (Example 7); details: both, Sprague Dawley, rat, in vivo
Procedure: (§1) The drugs were administered to Sprague Dawley rats with a 14-day observational period. Twenty-four Male Sprague Dawley (SD) rats and 24 female SD rats were purchased from Envigo at 8-10 weeks of age. The DA group had four dose levels (120, 360, 1000, and 2000 mg/kg, single administration by oral gavage), 3 rats per sex, 6 animals in total per dose level; and the DB group: four dose levels (120, 360, 1000, and 2000 mg/kg, single administration by oral gavage), 3 rats per sex, 6 animals in total per dose level. The estimated median lethal dose (LD50) was determined by a nonlinear regression [model: Y=100/(1+10^(LogEC50-X)), Hill slope=1.0) to calculate LD50.

[4] = test system: Sprague Dawley rats; assay: in vivo; details: rat, po; for Mortality rate: both, 14 day
Procedure: as §1

[5] = test system: human TAS2Rs (TAS2R 4, 8, 10, 13, 39, 43, 46, and 47); details: cited from earlier work
[6] = test system: normal C57BL/6 mice; details: oral 60 μmol/kg (26.8 mg/kg); cited from earlier work
[7] = test system: C57BL/6 DIO mice; details: 60 μmol/kg (26.8 mg/kg) once daily, 28-day period; cited from earlier work
[8] = test system: healthy volunteers; details: intragastric administration, cited from earlier work; for nutrient volume tolerance / satiation: 1 μmol/kg DB
[9] = test system: rodent obesity models; details: cited from earlier work

Structure (SMILES): CC[N+](CC)(CC(=O)Nc1c(C)cccc1C)Cc1ccccc1.O=C([O-])c1ccccc1 [DB, benzyl-[2-(2,6-dimethylanilino)-2-oxoethyl]-diethylazanium benzoate]
- Mean cumulative food intake 0-2 h ([1]; single oral dose (DA 23.1 mg/kg, DB 26.8 mg/kg), 0-2 h, N = 15): 4.8 gram
- Mean cumulative food intake 0-4 h ([1]; single oral dose (DA 23.1 mg/kg, DB 26.8 mg/kg), 0-4 h, N = 15): 7.7 gram
- Mean cumulative food intake 0-6 h ([1]; single oral dose (DA 23.1 mg/kg, DB 26.8 mg/kg), 0-6 h, N = 15): 10.9 gram
- Mean cumulative food intake 0-8 h ([1]; single oral dose (DA 23.1 mg/kg, DB 26.8 mg/kg), 0-8 h, N = 15): 13.8 gram
- Mean cumulative food intake 0-24 h ([1]; single oral dose (DA 23.1 mg/kg, DB 26.8 mg/kg), 0-24 h, N = 15): 20.6 gram
- cumulative food intake as compared with vehicle ([1]; single oral dose, all indicated time intervals): reduced cumulative food intake during all the indicated time intervals as compared with vehicle
- body weight gain as compared to vehicle treatment ([2]; DIO mice on high-fat diet, 26.8 mg/kg DB or 23.1 mg/kg DA BID): less body weight gain as compared to vehicle treatment
- Mean food consumption per animal for 24-h interval, Day 0 ([2]; DIO mice, BID oral (DA 23.1 mg/kg, DB 26.8 mg/kg), Day 0): 2.5 gram
- Mean food consumption per animal for 24-h interval, Day 7 ([2]; DIO mice, BID oral (DA 23.1 mg/kg, DB 26.8 mg/kg), Day 7): 1.8 gram
- Mean food consumption per animal for 24-h interval, Day 14 ([2]; DIO mice, BID oral (DA 23.1 mg/kg, DB 26.8 mg/kg), Day 14): 2.6 gram
- Mean food consumption per animal for 24-h interval, Day 21 ([2]; DIO mice, BID oral (DA 23.1 mg/kg, DB 26.8 mg/kg), Day 21): 2.9 gram
- Mean food consumption per animal for 24-h interval, Day 28 ([2]; DIO mice, BID oral (DA 23.1 mg/kg, DB 26.8 mg/kg), Day 28): 2.5 gram
- Mean food consumption per animal for 24-h interval, Day 35 ([2]; DIO mice, BID oral (DA 23.1 mg/kg, DB 26.8 mg/kg), Day 35): 2.5 gram
- Mean food consumption per animal for 24-h interval, Day 42 ([2]; DIO mice, BID oral (DA 23.1 mg/kg, DB 26.8 mg/kg), Day 42): 2.0 gram
- Mean food consumption per animal for 24-h interval, Day 49 ([2]; DIO mice, BID oral (DA 23.1 mg/kg, DB 26.8 mg/kg), Day 49): 2.4 gram
- Mean food consumption per animal for 24-h interval, Day 56 ([2]; DIO mice, BID oral (DA 23.1 mg/kg, DB 26.8 mg/kg), Day 56): 2.5 gram
- Mean normalized body weight (% of baseline), study day 0 ([2]; DIO mice, BID oral (DA 23.1 mg/kg, DB 26.8 mg/kg), day 0): 100.0 % of baseline
- Mean normalized body weight (% of baseline), study day 4 ([2]; DIO mice, BID oral (DA 23.1 mg/kg, DB 26.8 mg/kg), day 4): 100.5 % of baseline
- Mean normalized body weight (% of baseline), study day 7 ([2]; DIO mice, BID oral (DA 23.1 mg/kg, DB 26.8 mg/kg), day 7): 99.7 % of baseline
- Mean normalized body weight (% of baseline), study day 9 ([2]; DIO mice, BID oral (DA 23.1 mg/kg, DB 26.8 mg/kg), day 9): 99.4 % of baseline
- Mean normalized body weight (% of baseline), study day 11 ([2]; DIO mice, BID oral (DA 23.1 mg/kg, DB 26.8 mg/kg), day 11): 99.0 % of baseline
- Mean normalized body weight (% of baseline), study day 14 ([2]; DIO mice, BID oral (DA 23.1 mg/kg, DB 26.8 mg/kg), day 14): 99.3 % of baseline
- Mean normalized body weight (% of baseline), study day 16 ([2]; DIO mice, BID oral (DA 23.1 mg/kg, DB 26.8 mg/kg), day 16): 98.0 % of baseline
- Mean normalized body weight (% of baseline), study day 18 ([2]; DIO mice, BID oral (DA 23.1 mg/kg, DB 26.8 mg/kg), day 18): 97.9 % of baseline
- Mean normalized body weight (% of baseline), study day 21 ([2]; DIO mice, BID oral (DA 23.1 mg/kg, DB 26.8 mg/kg), day 21): 99.5 % of baseline
- Mean normalized body weight (% of baseline), study day 23 ([2]; DIO mice, BID oral (DA 23.1 mg/kg, DB 26.8 mg/kg), day 23): 100.5 % of baseline
- Mean normalized body weight (% of baseline), study day 25 ([2]; DIO mice, BID oral (DA 23.1 mg/kg, DB 26.8 mg/kg), day 25): 100.3 % of baseline
- Mean normalized body weight (% of baseline), study day 28 ([2]; DIO mice, BID oral (DA 23.1 mg/kg, DB 26.8 mg/kg), day 28): 100.2 % of baseline
- Mean normalized body weight (% of baseline), study day 30 ([2]; DIO mice, BID oral (DA 23.1 mg/kg, DB 26.8 mg/kg), day 30): 100.5 % of baseline
- Mean normalized body weight (% of baseline), study day 32 ([2]; DIO mice, BID oral (DA 23.1 mg/kg, DB 26.8 mg/kg), day 32): 102.8 % of baseline
- Mean normalized body weight (% of baseline), study day 34 ([2]; DIO mice, BID oral (DA 23.1 mg/kg, DB 26.8 mg/kg), day 34): 103.6 % of baseline
- Mean normalized body weight (% of baseline), study day 36 ([2]; DIO mice, BID oral (DA 23.1 mg/kg, DB 26.8 mg/kg), day 36): 104.1 % of baseline
- Mean normalized body weight (% of baseline), study day 39 ([2]; DIO mice, BID oral (DA 23.1 mg/kg, DB 26.8 mg/kg), day 39): 104.7 % of baseline
- Mean normalized body weight (% of baseline), study day 41 ([2]; DIO mice, BID oral (DA 23.1 mg/kg, DB 26.8 mg/kg), day 41): 105.3 % of baseline
- Mean normalized body weight (% of baseline), study day 46 ([2]; DIO mice, BID oral (DA 23.1 mg/kg, DB 26.8 mg/kg), day 46): 106.0 % of baseline
- Mean normalized body weight (% of baseline), study day 49 ([2]; DIO mice, BID oral (DA 23.1 mg/kg, DB 26.8 mg/kg), day 49): 107.8 % of baseline
- Mean normalized body weight (% of baseline), study day 51 ([2]; DIO mice, BID oral (DA 23.1 mg/kg, DB 26.8 mg/kg), day 51): 107.8 % of baseline
- Mean normalized body weight (% of baseline), study day 53 ([2]; DIO mice, BID oral (DA 23.1 mg/kg, DB 26.8 mg/kg), day 53): 107.4 % of baseline
- Mean normalized body weight (% of baseline), study day 56 ([2]; DIO mice, BID oral (DA 23.1 mg/kg, DB 26.8 mg/kg), day 56): 108.4 % of baseline
- food consumption compared to vehicle-dosed mice ([2]; DIO mice, BID oral, 56-day treatment): Lower food consumption was also seen on Days 0, 7, 28, 35, 42 and 49
- LD50 at 14 day [3]: 784 mg/kg
- MTD at 14 day [3]: 360 mg/kg
- Mortality rate ([4]; 120 mg/kg): 0%
- Mortality rate ([4]; 360 mg/kg): 0%
- Mortality rate ([4]; 1000 mg/kg): 66.7%
- Mortality rate ([4]; 2000 mg/kg): 100%
- No. of animals died within 24 h post dosing ([4]; female, 120 mg/kg): 0
- No. of animals died within 24 h post dosing ([4]; female, 360 mg/kg): 0
- No. of animals died within 24 h post dosing ([4]; female, 1000 mg/kg): 3
- No. of animals died within 24 h post dosing ([4]; female, 2000 mg/kg): 3
- No. of animals died within 24 h post dosing ([4]; male, 120 mg/kg): 0
- No. of animals died within 24 h post dosing ([4]; male, 360 mg/kg): 0
- No. of animals died within 24 h post dosing ([4]; male, 1000 mg/kg): 1
- No. of animals died within 24 h post dosing ([4]; male, 2000 mg/kg): 3
- activation of human TAS2Rs [5]: activates to varying degrees eight human TAS2Rs
- gastric emptying rate [6]: significantly inhibited gastric emptying rate
- body weight as compared to vehicle [7]: induced a decrease in body weight
- nutrient volume tolerance ([8]; listed as Denatonium benzoate): reduced nutrient volume tolerance
- satiation ([8]; listed as Denatonium benzoate): increased satiation post meal
- nutrient volume tolerance [8]: decreased nutrient volume tolerance
- satiation [8]: increased satiation
- hunger ratings [8]: decreased hunger ratings
- inter-digestive gastric motility [8]: attenuated inter-digestive gastric motility
- food intake [9]: suppressed food intake
- weight gain [9]: inhibited weight gain
